Laboratory results from patent publication US20170165286A1, “COMPOSITIONS AND METHODS FOR TREATING DIABETES AND LIVER DISEASES” (Cempra Pharmaceuticals, Inc., priority 2014, published 2017).

Columns and labels:
[1] = test system: BLM-induced pulmonary fibrosis model mice; assay: Bleomycin-induced lung injury: lung histopathology (Masson's Trichrome, Ashcroft score, HE); format: in vivo
Protocol: (§1) Bleomycin-Induced Lung Injury. Lung inflammation is induced in female mice by a single intratracheal administration of bleomycin. Twenty mice are divided into two groups. From Day −2 to Day 6, one group is administered vehicle and the other is administered test drug, such as solithromycin orally at a dose of 100 mg/kg. It is to be understood herein that 100 mg/kg in mice is generally considered to be equivalent to a 450-500 mg, such as 480 mg, dose in humans. Animals are sacrificed on Day 7.
(§2) Pathogen-free 7 weeks old female C57BL/6J mice are obtained from CLEA Japan (Tokyo, Japan) and allowed to acclimate at least 6 days. On day 0, twenty mice are induced to develop pulmonary fibrosis by a single intratracheal administration of bleomycin sulphate (BLM, Nippon Kayaku, Japan) in 0.9% saline in a volume of 50 μL per animal using a Microsprayer® (Penn-Century, USA). Individual body weight is measured daily during the experiment period. Survival, clinical signs and behavior of mice is monitored daily.
Solithromycin Reduces Inflammation In Mice Caused By Bleomycin-Induced Lung Injury. […]
Histopathological Analyses. […] The degree of pulmonary fibrosis was evaluated using the Ashcroft score (4) for the quantitative histological analysis.

[2] = Phase 1 study in subjects with hepatic impairment: safety; format: in vivo, humans; settings: for Number of subjects reporting treatment-emergent AEs: 800 mg Day 1, 400 mg Days 2-5
Protocol: Safety of solithromycin in humans with hepatic insufficiency.
Safety and Pharmacokinetics of solithromycin in Subjects with Hepatic Impairment. The safety, pharmacokinetics (PK), and protein binding of solithromycin was evaluated in subjects with mild, moderate, and severe hepatic impairment compared to healthy subjects with normal hepatic function (matched for age, weight, and gender). The evaluation was performed in a Phase 1, open-label, multiple-dose study in subjects with mild (Child-Pugh Class A), moderate (Child-Pugh Class B), and severe (Child-Pugh Class C) hepatic impairment and healthy matched control subjects with normal hepatic function. All subjects received a once-daily dose of 800 mg on Day 1 followed by 400 mg on Days 2 through 5.
33 subjects were enrolled: 8 with mild impairment (mean Child-Pugh score 5.625), 8 with moderate impairment (mean Child-Pugh score 7.375), 8 with severe impairment (mean Child-Pugh score 10.625), and 9 healthy controls with normal hepatic function. One subject, a healthy control, discontinued study drug after 2 doses due to a rash; all other subjects (n=32) completed the study. Overall, the number of subjects reporting treatment-emergent AEs in the hepatic impaired cohorts (mild n=1, moderate n=4, severe n=4) was no greater than in the control group (n=4).

[3] = test system: lung mRNA expression levels; assay: Bleomycin-induced lung injury: quantitative RT-PCR of lung; format: in vivo; settings: bleomycin mice lung, normalized to GAPDH, vehicle 1.00, heading says 50 mg/kg q.d.
Protocol: as §1, with “From Day −2 to Day 6, one group is administered vehicle and the other is administered test drug, such as solithromycin orally at a dose of 100 mg/kg.” left out
as §2
Solithromycin Reduces Inflammation In Mice Caused By Bleomycin-Induced Lung Injury. Pulmonary fibrosis is a problem in the management of patients who have received chemotherapy for malignancies particularly with regimens that contain bleomycin (BLM), methotrexate, cyclophosphamide, and many new agents. These patients are susceptible to pulmonary infections as well as to inflammation from pulmonary injury. […] The effects of solithromycin on the ability to prevent lung inflammation and fibrosis is described in a bleomycin induced-lung inflammation and fibrosis model. Group 1 (BLM-Vehicle): Ten BLM-induced pulmonary fibrosis model mice are orally administered vehicle (Carboxymethyl cellulose) at a volume of 10 mL/kg once daily from day −2 (two days before BLM administration) to day 6. […]
Quantitative RT-PCR. Total RNA was extracted from lung samples using RNAiso (Takara Bio, Japan). One μg of RNA was reverse-transcribed using a reaction mixture containing 4.4 mM MgCl2 (Roche, Switzerland), 40 U RNase inhibitor (Toyobo, Japan), 0.5 mM dNTP (Promega, USA), 6.28 μM random hexamer (Promega), 5× first strand buffer (Promega), 10 mM dithiothreitol (Invitrogen) and 200 U MMLV-RT (Invitrogen) in a final volume of 20 μL. The reaction was carried out for 1 hour at 37° C., followed by 5 minutes at 99° C. Real-time PCR was performed using real-time PCR DICE and SYBR premix Taq (Takara Bio). To calculate the relative mRNA expression level, the expression of each gene was normalized to that of reference gene GAPDH.
Analyses of BALF (bronchoalveolar lavage fluid). The cells in BALF are counted with a hemocytometer, and cell differentials are determined in cytospin preparations stained with Diff-Quik (Sysmex, Japan) MMP-9 in the supernatants from BALF are quantified by an enzyme-linked immunosorbent assay (ELISA; Cat# MMPT90, R&D Systems, USA). Histopathological assays for lung sections are performed according to standard methods. […]

## CC[C@H]1OC(=O)[C@@](C)(F)C(=O)[C@H](C)[C@@H](O[C@@H]2O[C@H](C)C[C@H](N(C)C)[C@H]2O)[C@](C)(OC)C[C@@H](C)C(=O)[C@H](C)[C@H]2N(CCCCn3cc(-c4cccc(N)c4)nn3)C(=O)O[C@]12C [solithromycin]
[1]
  HE staining: alveolar wall thickening, diffuse alveolar destruction, inflammatory cell infiltration vs vehicle: no obvious differences
[1]; vehicle 1.6±0.2
  Ashcroft score: 1.4±0.5
[2]; all cohorts
  Most commonly reported AEs: mild diarrhea and mild headache
[2]; any cohort, after 5 days of administration
  Mean changes from baseline in liver function tests on Day 8: not clinically significant
[2]; control cohort
  ALT mean (±SD) change from baseline on Day 8: 2.6±4.47 IU/L
  AST mean (±SD) change from baseline on Day 8: −0.6±2.92 IU/L
  Direct bilirubin mean (±SD) change from baseline on Day 8: 0.00 ± 0.053 mg/dL
[2]; healthy control group (9 enrolled)
  Number of subjects reporting treatment-emergent AEs: 4
[2]; humans with hepatic impairment, same doses
  Safety compared to healthy controls: no significant differences in safety
[2]; humans with mild, moderate and severe hepatic impairment, doses as high as 800 mg
  Tolerability: well tolerated
[2]; mild hepatic impairment
  ALT mean (±SD) change from baseline on Day 8: 4.0±8.00 IU/L
  AST mean (±SD) change from baseline on Day 8: 0.4±5.93 IU/L
  Direct bilirubin mean (±SD) change from baseline on Day 8: 0.00 ± 0.076 mg/dL
[2]; mild hepatic impairment (8 enrolled)
  Number of subjects reporting treatment-emergent AEs: 1
[2]; moderate hepatic impairment
  ALT mean (±SD) change from baseline on Day 8: 7.8±6.92 IU/L
  AST mean (±SD) change from baseline on Day 8: 0.1±10.56 IU/L
  Direct bilirubin mean (±SD) change from baseline on Day 8: 0.03 ± 0.046 mg/dL
[2]; moderate hepatic impairment (8 enrolled)
  Number of subjects reporting treatment-emergent AEs: 4
[2]; severe hepatic impairment
  ALT mean (±SD) change from baseline on Day 8: 6.3±14.61 IU/L
  AST mean (±SD) change from baseline on Day 8: 5.8±22.44 IU/L
  Direct bilirubin mean (±SD) change from baseline on Day 8: 0.04 ± 0.207 mg/dL
[2]; severe hepatic impairment (8 enrolled)
  Number of subjects reporting treatment-emergent AEs: 4
[3]
  Relative MCP-1 mRNA expression: 0.38 ± 0.32
  Relative MMP-9 mRNA expression: 0.42 ± 0.45
[3]; listed as SOLI
  Relative TNF-α mRNA expression: 2.45 ± 2.10
[3]; listed as Solithromycin
  Relative TNF-α mRNA expression: up-regulated
